In article PMC7413254 (Nature Communications, 2020):
Like-named read-outs stand apart in the source and are kept apart here.

Legend:
[1] = test system: non-expressing oocytes; type: cell-based, Xenopus laevis; details: non-expressing oocytes, total [3H]CQ transport, normalised to the oocyte type control
Summary of the method: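 Oocytes (ten per treatment, ≥4 independent frogs/days) were preloaded by injecting VF-6 in 25 nL ND96 at pH 5.0, 5.5, 6.0 or 7.0, or Na^+-free choline buffer, then uptake run 1.5 h, 27.5 °C, ND96 pH 5.5 by default. Internal concentrations assumed ~400 nL oocyte volume.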

[2] = target: T1, PfCRT^Ecu1110 (Plasmodium falciparum, UniProt Q9N623, A220S/I356L/K76T/N326D); experiment: [3H]CQ uptake into Xenopus oocytes, cis-inhibition by unlabelled solute; type: cell-based; details: for Uptake of [3H]CQ (% PfCRTEcu1110 control), cis-inhibition / PfCRT-mediated [3H]CQ transport, cis-inhibition (% PfCRTEcu1110 control): PfCRTEcu1110 oocytes; for Uptake of [3H]CQ (% PfCRTEcu1110 control), cis-inhibition: total [3H]CQ transport, normalised to the oocyte type control; for PfCRT-mediated [3H]CQ transport, cis-inhibition (% PfCRTEcu1110 control): background [3H]CQ accumulation subtracted, normalised to oocyte type control; for [3H]CQ transport (% PfCRTEcu1110 control), cis-inhibition, PfCRTEcu1110: PfCRT-mediated component (background subtracted), sheet title says normalised to PfCRTDd2 control, mean ± SEM, SEM
Summary of the method: (§1)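 Assay buffer ND96 (10 mM MES, 10 mM Tris-base) held at pH 5.5 to mimic vacuole lumen; uptake measured inward from this acidic medium over 1.5 h at 27.5 °C.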

[3] = target: T2, PfCRT^Dd2 (Plasmodium falciparum, UniProt Q9N623, A220S/I356T/K76T/M74I/N326S/N75E/Q271E/R371I); experiment: as above; type: cell-based; details: PfCRTDd2 oocytes, background [3H]CQ accumulation subtracted, normalised to oocyte type control
Summary of the method: as §1

[4] = target: T3, PfCRT^3D7 (Plasmodium falciparum, UniProt Q8IBZ9); experiment: cell-based; type: cell-based; details: PfCRT3D7 oocytes, total [3H]CQ transport, normalised to the oocyte type control
Summary of the method: as §1

[5] = test system: non-expressing oocytes; experiment: cells; type: cell-based, Xenopus laevis; details: non-expressing oocytes, total [3H]CQ transport, normalised to the oocyte type control
Summary of the method: as §1

[6] = target: T1, PfCRT^Ecu1110; experiment: cell-based; type: cell-based; details: for Uptake of [3H]CQ (% PfCRTEcu1110 control), trans-stimulation / PfCRT-mediated [3H]CQ transport, trans-stimulation (% PfCRTEcu1110 control): PfCRTEcu1110 oocytes; for Uptake of [3H]CQ (% PfCRTEcu1110 control), trans-stimulation: total [3H]CQ transport, normalised to the oocyte type control; for PfCRT-mediated [3H]CQ transport, trans-stimulation (% PfCRTEcu1110 control): normalised to oocyte type control; for [3H]CQ transport (% PfCRTDd2 control), trans-stimulation, PfCRTEcu1110: PfCRT-mediated component (background subtracted), sheet title says normalised to PfCRTDd2 control, mean ± SEM, SEM
Summary of the method: (§2)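 Transport measured in Xenopus oocytes expressing the transporters, 1.5 h at 27.5 °C in ND96 pH 5.5 unless noted. For trans-stimulation, VF-6 injected in 25 nL ND96 at pH 5.0–7.0 or Na^+-free (choline) buffer; intracellular levels based on ~400 nL oocyte volume. Ten oocytes per treatment, ≥4 experiments.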

[7] = target: T2, PfCRT^Dd2; experiment: cell-based; type: cell-based; details: for Uptake of [3H]CQ (% PfCRTDd2 control), trans-stimulation / PfCRT-mediated [3H]CQ transport, trans-stimulation (% PfCRTDd2 control): PfCRTDd2 oocytes; for Uptake of [3H]CQ (% PfCRTDd2 control), trans-stimulation: total [3H]CQ transport, normalised to the oocyte type control; for PfCRT-mediated [3H]CQ transport, trans-stimulation (% PfCRTDd2 control): normalised to oocyte type control; for [3H]CQ transport (% PfCRTDd2 control), trans-stimulation, PfCRTDd2: PfCRT-mediated component (background subtracted), mean ± SEM, SEM
Summary of the method: as §2

[8] = target: T3, PfCRT^3D7; experiment: cell-based; type: cell-based; details: PfCRT3D7 oocytes; for Uptake of [3H]CQ (% PfCRT3D7 control), trans-stimulation: total [3H]CQ transport, normalised to the oocyte type control; for PfCRT-mediated [3H]CQ transport, trans-stimulation (% PfCRT3D7 control): normalised to oocyte type control
Summary of the method: as §2

[9] = target: T4, PfNT1 (Plasmodium falciparum, UniProt Q8IDM6); experiment: cell-based; type: cell-based; details: PfNT1 oocytes, total [3H]CQ transport, normalised to the oocyte type control
T4 construct: expressed in transfected cells; host or cells: Xenopus laevis oocytes (stage V-VI), cRNA-injected
Summary of the method: as §2

[10] = [test solute]i = 45 mM (30 mM for some solutes due to solubility)
[11] = [test solute]i = 5 mM (intracellular)
[12] = [test solute]i = 45 mM (intracellular; 30 mM for some solutes due to solubility)
[13] = [test solute]i = 5 mM (injected)

T1 sequence (Q9N623 whole entry A220S/I356L/K76T/N326D): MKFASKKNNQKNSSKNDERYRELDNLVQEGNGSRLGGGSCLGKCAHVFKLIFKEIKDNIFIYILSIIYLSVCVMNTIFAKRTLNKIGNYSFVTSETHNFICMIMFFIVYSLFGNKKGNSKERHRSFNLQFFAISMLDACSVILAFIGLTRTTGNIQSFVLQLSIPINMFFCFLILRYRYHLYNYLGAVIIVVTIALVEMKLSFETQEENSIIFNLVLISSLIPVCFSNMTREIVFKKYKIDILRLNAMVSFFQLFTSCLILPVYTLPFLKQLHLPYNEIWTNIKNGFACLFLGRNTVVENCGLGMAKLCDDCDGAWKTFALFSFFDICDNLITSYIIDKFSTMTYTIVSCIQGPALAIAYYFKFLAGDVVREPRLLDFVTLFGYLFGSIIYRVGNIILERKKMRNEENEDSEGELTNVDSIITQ
T3 sequence (Q8IBZ9 59-398): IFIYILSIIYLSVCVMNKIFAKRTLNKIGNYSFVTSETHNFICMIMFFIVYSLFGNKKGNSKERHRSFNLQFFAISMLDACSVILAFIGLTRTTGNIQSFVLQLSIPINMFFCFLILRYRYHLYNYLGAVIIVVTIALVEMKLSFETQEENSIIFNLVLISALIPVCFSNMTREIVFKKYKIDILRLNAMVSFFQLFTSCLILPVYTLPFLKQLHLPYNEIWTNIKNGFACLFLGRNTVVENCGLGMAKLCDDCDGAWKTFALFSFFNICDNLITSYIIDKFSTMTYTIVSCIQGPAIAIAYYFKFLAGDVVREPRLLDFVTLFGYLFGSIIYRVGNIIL
T2 sequence (Q9N623 whole entry A220S/I356T/K76T/M74I/N326S/N75E/Q271E/R371I): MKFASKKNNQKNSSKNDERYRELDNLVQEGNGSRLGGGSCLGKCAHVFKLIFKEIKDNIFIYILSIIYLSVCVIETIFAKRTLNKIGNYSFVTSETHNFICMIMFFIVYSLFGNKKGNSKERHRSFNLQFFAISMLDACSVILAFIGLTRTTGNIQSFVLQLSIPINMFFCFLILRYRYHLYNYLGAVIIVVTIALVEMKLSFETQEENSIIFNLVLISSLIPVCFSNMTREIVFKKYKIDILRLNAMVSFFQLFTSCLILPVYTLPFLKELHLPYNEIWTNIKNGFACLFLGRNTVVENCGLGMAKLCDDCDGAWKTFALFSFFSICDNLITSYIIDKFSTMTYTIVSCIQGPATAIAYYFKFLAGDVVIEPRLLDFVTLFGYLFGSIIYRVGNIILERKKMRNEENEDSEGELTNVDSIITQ
T4 sequence (Q8IDM6 whole entry): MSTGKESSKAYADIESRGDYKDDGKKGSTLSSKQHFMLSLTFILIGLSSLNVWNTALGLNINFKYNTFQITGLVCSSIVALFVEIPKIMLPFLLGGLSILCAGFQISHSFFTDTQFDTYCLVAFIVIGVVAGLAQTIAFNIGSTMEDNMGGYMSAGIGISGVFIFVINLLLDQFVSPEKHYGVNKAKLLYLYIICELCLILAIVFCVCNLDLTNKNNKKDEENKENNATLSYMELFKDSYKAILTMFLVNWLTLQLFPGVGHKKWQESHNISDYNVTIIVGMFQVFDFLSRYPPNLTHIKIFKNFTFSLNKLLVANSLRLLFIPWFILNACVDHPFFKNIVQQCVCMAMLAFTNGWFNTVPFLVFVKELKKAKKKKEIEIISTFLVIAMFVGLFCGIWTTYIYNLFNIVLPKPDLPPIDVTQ

## ASLD [AD-4]
[1]; [test solute]i = 5 mM
  Uptake of [3H]CQ (% non-expressing oocyte control), trans-stimulation: 100 ± 4.9 % non-expressing oocyte control
[1]; [10]
  Uptake of [3H]CQ (% non-expressing oocyte control), trans-stimulation: 98 ± 2.6 % non-expressing oocyte control
[2]; [test solute] = 0.5 mM
  Uptake of [3H]CQ (% PfCRTEcu1110 control), cis-inhibition: 49 ± 9.7 % PfCRTEcu1110 control
  PfCRT-mediated [3H]CQ transport, cis-inhibition (% PfCRTEcu1110 control): 42 ± 2.1 % PfCRTEcu1110 control
  [3H]CQ transport (% PfCRTEcu1110 control), cis-inhibition, PfCRTEcu1110: 13 ± 0.2 % PfCRTEcu1110 control
[2]; [test solute] = 1 mM
  Uptake of [3H]CQ (% PfCRTEcu1110 control), cis-inhibition: 32 ± 8.5 % PfCRTEcu1110 control
  PfCRT-mediated [3H]CQ transport, cis-inhibition (% PfCRTEcu1110 control): 28 ± 3.4 % PfCRTEcu1110 control
[2]; [test solute] = 2 mM
  Uptake of [3H]CQ (% PfCRTEcu1110 control), cis-inhibition: 26 ± 5.6 % PfCRTEcu1110 control
  PfCRT-mediated [3H]CQ transport, cis-inhibition (% PfCRTEcu1110 control): 21 ± 1.1 % PfCRTEcu1110 control
  [3H]CQ transport (% PfCRTEcu1110 control), cis-inhibition, PfCRTEcu1110: 6.0 ± 0.03 % PfCRTEcu1110 control
[3]; [test solute] = 0.5 mM
  PfCRT-mediated [3H]CQ transport, cis-inhibition (% PfCRTDd2 control): 31 ± 1.9 % PfCRTDd2 control
[3]; [test solute] = 1 mM
  PfCRT-mediated [3H]CQ transport, cis-inhibition (% PfCRTDd2 control): 22 ± 0.8 % PfCRTDd2 control
[3]; [test solute] = 2 mM
  PfCRT-mediated [3H]CQ transport, cis-inhibition (% PfCRTDd2 control): 12 ± 0.3 % PfCRTDd2 control
[4]; [test solute] = 0.5 mM
  Uptake of [3H]CQ (% PfCRT3D7 control), cis-inhibition: 98 ± 4.4 % PfCRT3D7 control
[4]; [test solute] = 1 mM
  Uptake of [3H]CQ (% PfCRT3D7 control), cis-inhibition: 99 ± 4.7 % PfCRT3D7 control
[4]; [test solute] = 2 mM
  Uptake of [3H]CQ (% PfCRT3D7 control), cis-inhibition: 99 ± 6.1 % PfCRT3D7 control
[5]; [test solute] = 0.5 mM
  Uptake of [3H]CQ (% non-expressing oocyte control), cis-inhibition: 99 ± 5.3 % non-expressing oocyte control
[5]; [test solute] = 1 mM
  Uptake of [3H]CQ (% non-expressing oocyte control), cis-inhibition: 99 ± 5.2 % non-expressing oocyte control
[5]; [test solute] = 2 mM
  Uptake of [3H]CQ (% non-expressing oocyte control), cis-inhibition: 99 ± 4.6 % non-expressing oocyte control
[6]; [test solute]i = 5 mM
  Uptake of [3H]CQ (% PfCRTEcu1110 control), trans-stimulation: 100 ± 3.2 % PfCRTEcu1110 control
[6]; [10]
  Uptake of [3H]CQ (% PfCRTEcu1110 control), trans-stimulation: 99 ± 3.2 % PfCRTEcu1110 control
  [3H]CQ transport (% PfCRTDd2 control), trans-stimulation, PfCRTEcu1110: 29 ± 1.4 % PfCRTEcu1110 control
[6]; [11]
  PfCRT-mediated [3H]CQ transport, trans-stimulation (% PfCRTEcu1110 control): 98 ± 4.1 % PfCRTEcu1110 control
[6]; [12]
  PfCRT-mediated [3H]CQ transport, trans-stimulation (% PfCRTEcu1110 control): 97 ± 2.9 % PfCRTEcu1110 control
[6]; [13]
  [3H]CQ transport (% PfCRTDd2 control), trans-stimulation, PfCRTEcu1110: 30 ± 1.7 % PfCRTEcu1110 control
[7]; [test solute]i = 5 mM
  Uptake of [3H]CQ (% PfCRTDd2 control), trans-stimulation: 98 ± 3.3 % PfCRTDd2 control
[7]; [10]
  Uptake of [3H]CQ (% PfCRTDd2 control), trans-stimulation: 97 ± 3.9 % PfCRTDd2 control
  [3H]CQ transport (% PfCRTDd2 control), trans-stimulation, PfCRTDd2: 95 ± 2.6 % PfCRTDd2 control
[7]; [11]
  PfCRT-mediated [3H]CQ transport, trans-stimulation (% PfCRTDd2 control): 96 ± 2.9 % PfCRTDd2 control
[7]; [12]
  PfCRT-mediated [3H]CQ transport, trans-stimulation (% PfCRTDd2 control): 95 ± 2.6 % PfCRTDd2 control
[7]; [13]
  [3H]CQ transport (% PfCRTDd2 control), trans-stimulation, PfCRTDd2: 96 ± 2.9 % PfCRTDd2 control
[8]; [test solute]i = 5 mM
  Uptake of [3H]CQ (% PfCRT3D7 control), trans-stimulation: 99 ± 3.7 % PfCRT3D7 control
[8]; [10]
  Uptake of [3H]CQ (% PfCRT3D7 control), trans-stimulation: 100 ± 2.6 % PfCRT3D7 control
[8]; [11]
  PfCRT-mediated [3H]CQ transport, trans-stimulation (% PfCRT3D7 control): 97 ± 2.0 % PfCRT3D7 control
[8]; [12]
  PfCRT-mediated [3H]CQ transport, trans-stimulation (% PfCRT3D7 control): 98 ± 3.3 % PfCRT3D7 control
[9]; [test solute]i = 5 mM
  Uptake of [3H]CQ (% PfNT1 control), trans-stimulation: 99 ± 2.5 % PfNT1 control
[9]; [10]
  Uptake of [3H]CQ (% PfNT1 control), trans-stimulation: 96 ± 2.2 % PfNT1 control
